Experimental data as given in patent US7645740B2, “Peptide sequence found in Laminin 5 for treating skin impairments” (Laboratoires d'Anjou Centre National de la Recherche …, priority 2004, dated 2010).

How the values were obtained:
[1] = test system: A431 cells (skin epitheloids); assay: Cell adhesion test to immobilized peptides, A431; type: cell-based; details: A431, 0 to 10 micrograms immobilized peptide, 8×10^4 cells per well, 1 hour 37° C., absorbance 570 nm
Description: Dose-dependent cell adhesion of cell line A431 to various peptides 1, 2 and 3. The peptides were immobilized in 96-well plates at the concentrations given on the abscissa. 8×10^4 cells were deposited in each well and plates were incubated at 37° C. for 1 hour. After washing, attached cells were fixed and cell adhesion was measured as described in the methodology section.
(§1) Peptides 1, 2 and 3 were used for the cell adhesion experiments. A range of 7 decreasing concentrations (100 micrograms/ml, 50 micrograms/ml, 25 micrograms/ml, 12.5 micrograms/ml, 6.25 micrograms/ml, 3.125 micrograms/ml and 1.562 micrograms/ml) was made up by successive dilution in PBS (Phosphate Buffer Saline, KH2PO4 1.54 mM; Na2HPO4 1.42 mM; NaCl-131 mM) using a starting solution at a concentration of 1 mg/ml. These solutions were immediately distributed onto a 96-well culture plate (Greinher, Dutscher, Brumath, France) at a rate of 100 μl per well. Plates were then placed at +4° C. for 16 to 18 hours. The solutions were then removed by turning the plates and each well was saturated with a 1% PBS-BSA solution (bovine serum albumin). Three additional wells without the substrate underwent the same treatment and were used as blanks.
(§2) Epithelial cells were detached from the culture dishes using a trypsin/EDAT solution (0.05-0.02%) then suspended in DMEM medium without additives for the cell lines and in KBM-2 without additive for human keratinocytes. The number of seeded cells per well is given in the graphs (50,000 to 100,000 cells per well).
(§3) After cell seeding, the multi-well plates were placed in an incubator at 37° C. under 5% CO2. After incubation for 30 to 60 minutes, cells were observed under a phase contrast microscope in order to verify that the test was conducted correctly. The adhesion medium was then removed and each well was washed in a sterile PBS solution to remove non-adhering cells. The remaining cells, attached to the substrate, were then fixed using a solution of 1% glutaraldehyde in PBS for 15 minutes. The glutaraldehyde solution as removed and the cells were stained with a crystal violet solution diluted to 1% in distilled water for 30 minutes.
(§4) After rinsing in water several times, cells were permeabilized by means of a 0.02% triton solution for 15 minutes in order to solubilize the crystal violet. Absorbances were read at 570 nm using an ELISA plate reader (MR500, Dynatech, Guernsey, Channel Islands). Each experimental point was carried out in triplicate. The blank value represented the mean absorbance of 3 control wells (BSA). This was subtracted from each of the optical density values for the experimental points. We then calculated the mean for the three absorbance values for each of the triplicate samples.
(§5) The results are presented in the form of a graph with the absorbance values on the ordinate and the various substrate concentrations on the abscissa. Attached cells were photographed by phase contrast microscopy.
(§6) The following cells from epithelial cell lines were used initially (commonly used in preliminary studies on cell adhesion): • line HT1080 cells (human fibrosarcoma), American Type Culture Collection CCL-121. • line HB100 cells (human mammary epithelium), American Type Culture Collection HTB-124. • line A431 cells (skin epitheliods), American Type Culture Collection CRL-1555.

NHKs [2] = assay: Cell adhesion of NHKs to peptides co-immobilized with laminin 5; type: cell-based, human; details: laminin 5 fixed quantity 0.2 mg, 50,000 cells per well, percentage of LN5 alone
Description: Peptides 1, 2 and 3 (variable quantities indicated) and laminin 5 (fixed quantity 0.2 mg) were co-immobilized in 96-well plates. 5×104 NHKs were deposited in each well and plates were incubated at 37° C. for 1 hour. After washing, attached cells were fixed and cell adhesion was measured as described in the methodology section. Cell adhesion in the presence of the peptide is given as a percentage of cell adhesion obtained with laminin 5 alone. Cells were observed by phase contrast microscopy then photographed. Bar=50 μm.
(§7) A decreasing range of LN5 (prepared in the laboratory) and COL4 (BD Biosciences, Le Pont de Claix, France) quantities was made up by successive dilution in PBS. These solutions were immediately distributed into a 96-well culture plate (Costar) at a rate of 100 μl per well. The experiment was conducted in exactly the same way as the experiment described in example 2. The results are given in the form of a graph with the absorbance values representing adhesion on the ordinate and the various substrate concentrations on the abscissa. Attached cells were photographed by phase contrast microscopy.
In order to analyse the effect of the peptide on cell adhesion to DEJ proteins, peptide TALRIRATYGEY (SEQ ID NO.1) (peptide 1) was co-immobilized with LN5 (FIG. 14) and COL4 (FIG. 15). The fixed quantity of matrix protein (LN5 and COL4) and the variable quantity of peptide are given on the graph (FIGS. 14 and 15). Peptides 2 and 3 (described in example 1) were used as controls for the experiment. The adhesion tests were carried out with NHK under the same conditions as the experiment given in FIG. 13 (50,000 cells per well). A peptide-free control representing 100% adhesion (LN5 only and COL4 only) was used to allow analysis of the effect of adhesion relating to the presence of the peptide. The results are given as a percentage of this control.

[3] = test system: HBL100 cells (human mammary epithelium); assay: Cell adhesion test to immobilized peptides, HBL100; type: cell-based; details: HBL100, 0 to 10 micrograms immobilized peptide, 8×10^4 cells per well, 1 hour 37° C., absorbance 570 nm
Description: Dose-dependent cell adhesion of cell line HBL100 to various peptides 1, 2 and 3. The peptides were immobilized in 96-well plates at the concentrations given on the abscissa. 8×10^4 cells were deposited in each well and plates were incubated at 37° C. for 1 hour. After washing, attached cells were fixed and cell adhesion was measured as described in the methodology section.
as §1, §2, §3, §4, §5, §6

[4] = test system: HT1080 cells (human fibrosarcoma); assay: Cell adhesion test to immobilized peptides, HT1080; type: cell-based; details: HT1080, 0 to 10 micrograms immobilized peptide, 8×10^4 cells per well, 1 hour 37° C., absorbance 570 nm
Description: Dose-dependent cell adhesion of cell line HT1080 to various peptides 1, 2 and 3. The peptides were immobilized in 96-well plates at the concentrations given on the abscissa. 8×10^4 cells were deposited in each well and plates were incubated at 37° C. for 1 hour. After washing, attached cells were fixed and cell adhesion was measured as described in the methodology section.
Dose-dependent cell adhesion of HT1080 cells to various peptide TALRIRATYGEY (SEQ ID NO. 1). The peptides were immobilized in 96-well plates in the quantities given on the abscissa. 8×10^4 cells and 15×10^4 cells were deposited in each well and plates were incubated at 37° C. for 1 hour. After washing, attached cells were fixed and cell adhesion was measured as described in the methodology section. Cells were observed by phase contrast microscopy then photographed. Bar =50 μm
as §1, §2, §3
After rinsing in water several times, cells were permeabilized by means of a 0.02% triton solution for 15 minutes in order to solubilize the crystal violet. Absorbances were read at 570 nm using an ELISA plate reader (MR500, Dynatech, Guernsey, Channel Islands). Each experimental point was carried out in triplicate. The blank value represented the mean absorbance of 3 control wells (BSA). […] We then calculated the mean for the three absorbance values for each of the triplicate samples.
The results are presented in the form of a graph with the absorbance values on the ordinate and the various substrate concentrations on the abscissa. […]
A second approach was taken in order to determine the minimum quantity of active peptide and the number of adhering cells was increased in order to obtain a confluent cell network. […]

[5] = test system: normal human keratinocytes; assay: Cell adhesion test to immobilized peptides, normal human keratinocytes; type: cell-based; details: 0 to 10 micrograms immobilized peptide, 10^5 cells per well, 1 hour 37° C., absorbance 570 nm
Description: Dose-dependent cell adhesion of normal human keratinocytes to various peptides 1, 2 and 3. The peptides were immobilized in 96-well plates at the concentrations given on the abscissa. 10^5 cells were deposited in each well and plates were incubated at 37° C. for 1 hour. After washing, attached cells were fixed and cell adhesion was measured as described in the methodology section.
as §1, §2, §3, §4, §5
Freshly isolated normal human keratinocytes were used in a second experiment. As the basal keratinocytes of the epidermis are in direct contact with LN-5 in the skin, it was necessary to test their adhesion capacity to the peptide in question. Human keratinocytes were obtained from a foreskin biopsy (surgery waste, Pavillon T-Bis, Eduard Herriot Hospital). […]

NHKs [6] = assay: Cell adhesion of NHKs to laminin 5 and collagen IV substrates; type: cell-based, human; details: 0 to 2 micrograms per well, 5×10^4 NHKs per well, 1 hour 37° C.
Description: (A) Diagrammatic representation of laminin 5 and collagen IV in the dermo-epidermal junction (DEJ). (B) Dose-dependent cell adhesion of NHKS to laminin 5 and collagen IV. laminin 5 and collagen IV were fixed to 96-well plates in the quantities given on the abscissa. 5×10^4 NHKs were deposited in each well and plates were incubated at 37° C. for 1 hour. After washing, attached cells were fixed and cell adhesion was measured as described in the methodology section.
as §7

Substance | cell adhesion to immobilized peptide [1] | effect on adhesion of NHKs to LN5 (co-immobilized) (NHKs [2]) | cell adhesion to immobilized peptide [3] | cell adhesion to immobilized peptide [4] | cell adhesion to immobilized peptide [5] | adhesion of NHKs to substrate protein (NHKs [6])
DVKNLENIRDNL (Human laminin 5) [Peptide 3, control peptide from the terminal carboxy end of the gamma 2 chain of laminin 5, position 1169-1180, reference compound] | did not lead to any adhesion | do not modify adhesion | did not lead to any adhesion | did not lead to any adhesion | did not lead to any adhesion | 
GLTKTYTFRLNE (Human laminin 5) [Peptide 2, control peptide from the gamma 2 chain of laminin 5, position 309-321, reference compound] | did not lead to any adhesion | do not modify adhesion | did not lead to any adhesion | did not lead to any adhesion | did not lead to any adhesion | 
LN5: laminin 5, dermo-epidermal junction glycoprotein, prepared in the laboratory, used as adhesion substrate |  |  |  |  |  | much better substrate
